Data from patent US8426588B2, “Phenylalanine derivatives” (Ajinomoto Co, Inc., priority 2000, dated 2013).

What was measured:
integrin α4β1 = target: T1, integrin α4β1 (Homo sapiens, UniProt P05556+P13612); assay: VCAM antagonist activity (VCAM-1/α4β1 binding assay), Jurkat cells binding to VCAM-1; format: cell-based; details: Jurkat human T cells binding to recombinant human VCAM-1; read-out: VCAM antagonistic activity (IC50) α4β1
T1 construct: cell strain Jurkat (ATCC TIB-152) of human T cells, known to express integrin α4β1; endogenous in cells; host or cells: Jurkat (ATCC TIB-152)
T1 sequence (P05556 21-798, one chain of several): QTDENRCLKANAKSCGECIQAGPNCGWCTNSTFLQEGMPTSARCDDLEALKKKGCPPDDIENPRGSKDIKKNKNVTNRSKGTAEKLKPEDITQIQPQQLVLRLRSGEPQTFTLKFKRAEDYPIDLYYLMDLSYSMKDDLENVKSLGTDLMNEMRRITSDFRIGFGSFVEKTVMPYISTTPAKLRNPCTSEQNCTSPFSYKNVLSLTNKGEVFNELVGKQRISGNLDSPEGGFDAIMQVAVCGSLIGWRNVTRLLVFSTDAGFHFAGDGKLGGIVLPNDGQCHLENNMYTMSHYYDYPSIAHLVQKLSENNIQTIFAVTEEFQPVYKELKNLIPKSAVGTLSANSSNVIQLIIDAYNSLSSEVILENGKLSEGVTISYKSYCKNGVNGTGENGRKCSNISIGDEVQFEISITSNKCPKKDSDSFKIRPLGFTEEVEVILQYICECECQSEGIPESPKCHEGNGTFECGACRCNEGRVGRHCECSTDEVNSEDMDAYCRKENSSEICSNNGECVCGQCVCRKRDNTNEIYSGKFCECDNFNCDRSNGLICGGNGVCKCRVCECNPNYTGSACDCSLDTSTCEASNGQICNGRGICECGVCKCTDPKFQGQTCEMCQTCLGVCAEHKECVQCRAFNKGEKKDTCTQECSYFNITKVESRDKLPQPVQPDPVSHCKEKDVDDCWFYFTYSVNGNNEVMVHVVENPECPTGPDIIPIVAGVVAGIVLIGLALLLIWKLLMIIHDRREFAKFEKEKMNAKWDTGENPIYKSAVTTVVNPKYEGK
Protocol: VCAM Antagonist Activity (VCAM-1/α4β1 Binding Assay)
The capacity of a test substance antagonistic to the binding of cell strain Jurkat (ATCC TIB-152) of human T cells, known to express integrin α4β1, to VCAM-1 was determined.
(§1) 100 μl/well of a solution (500 ng/ml) of recombinant human VCAM-1 (R & D systems) solution diluted with buffer A (0.1 M NaHCO3, pH 9.6) was added to a micro titer plate having 96 wells (Nunc Maxisorp). After the incubation at 4° C. overnight, unbound VCAM-1 was removed by washing once with PBS. After completion of the washing, a buffer (buffer B) obtained by diluting Block Ace (Dainippon Pharmaceutical Co., Ltd.) with PBS to ¼ concentration was added in an amount of 150 μl/well. After the incubation at room temperature for 1 hour, buffer B was removed and the plate was washed with PBS once.
Jurkat cells were washed with Dulbecco modified Eagle medium (SIGMA, hereinafter referred to as “DMEM”) twice and then incubated in DMEM containing 10 μg/ml of Calcein-AM (Wako Pure Chemical Industries, Ltd.) at 37° C. in dark place for 30 minutes to label with fluorescence. The cells were again suspended in a binding buffer (20 mM HEPES, DMEM containing 0.1% BSA).
(§2) 50 μl of a test substance of various concentrations obtained by the dilution with the binding buffer was added to the plate. Immediately thereafter, 50 μl (final volume: 100 μl/well) of the fluorescent Jurkat cells (4×10^6 cells/ml) were added thereto, and they were incubated in dark place at room temperature for 30 minutes. After the shaking on a plate shaker (IKA MTS-4) at 800 rpm for 30 seconds, the solution was immediately removed to remove the unbound cells. The fluorescence quantity of the bound cells remaining in the wells was determined with a fluorescent plate reader (Wallac 1920 ARVO multi-label counter) (filter excitation wave length: 485 nm, emission wave length: 535 nm). The fluorescent strength thus obtained is proportional to the number of Jurkat cells bound to VCAM-1 and remaining on the plate. The binding rate of each test material in various concentrations was determined while the fluorescent strength of the test material-free well was determined to be 100%.

integrin α4β7 = target: T2, integrin α4β7 (Homo sapiens, UniProt P13612+P26010); assay: VCAM antagonistic activity (VCAM-1/α4β7 binding assay), RPMI-8866 cells binding to VCAM-1; format: cell-based; details: RPMI-8866 human B lymphoma cells binding to recombinant human VCAM-1; binding buffer with 4 mM MnCl2
T2 construct: lymphoma cell strain RPMI-8866 of human B cells, known to express integrin α4β7; endogenous in cells; host or cells: RPMI-8866
T2 sequence (P13612 34-1032): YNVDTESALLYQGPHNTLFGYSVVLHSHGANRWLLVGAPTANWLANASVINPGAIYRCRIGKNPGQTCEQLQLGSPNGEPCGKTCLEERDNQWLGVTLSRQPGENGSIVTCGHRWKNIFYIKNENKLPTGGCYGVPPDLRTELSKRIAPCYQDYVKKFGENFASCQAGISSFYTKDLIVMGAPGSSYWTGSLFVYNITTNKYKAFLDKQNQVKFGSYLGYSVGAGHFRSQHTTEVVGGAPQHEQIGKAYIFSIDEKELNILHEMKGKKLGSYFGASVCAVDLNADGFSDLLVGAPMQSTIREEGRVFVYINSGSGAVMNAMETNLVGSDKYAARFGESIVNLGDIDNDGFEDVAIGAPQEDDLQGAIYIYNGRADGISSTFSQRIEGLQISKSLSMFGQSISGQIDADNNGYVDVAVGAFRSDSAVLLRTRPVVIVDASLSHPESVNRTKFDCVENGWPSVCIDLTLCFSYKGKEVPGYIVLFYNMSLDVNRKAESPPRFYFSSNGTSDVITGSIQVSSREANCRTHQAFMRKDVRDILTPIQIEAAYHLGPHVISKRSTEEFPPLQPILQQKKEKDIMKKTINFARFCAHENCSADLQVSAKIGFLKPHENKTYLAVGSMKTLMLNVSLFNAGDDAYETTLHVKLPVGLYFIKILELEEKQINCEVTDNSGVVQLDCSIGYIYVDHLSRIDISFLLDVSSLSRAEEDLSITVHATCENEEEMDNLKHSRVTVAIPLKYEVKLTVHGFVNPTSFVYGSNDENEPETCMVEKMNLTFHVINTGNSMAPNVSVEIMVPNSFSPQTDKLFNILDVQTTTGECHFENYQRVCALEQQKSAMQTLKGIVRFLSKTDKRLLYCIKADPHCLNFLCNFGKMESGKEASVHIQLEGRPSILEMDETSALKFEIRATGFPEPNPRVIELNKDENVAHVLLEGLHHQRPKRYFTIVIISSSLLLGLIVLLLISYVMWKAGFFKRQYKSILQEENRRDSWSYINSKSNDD
T2 sequence (P26010 20-798): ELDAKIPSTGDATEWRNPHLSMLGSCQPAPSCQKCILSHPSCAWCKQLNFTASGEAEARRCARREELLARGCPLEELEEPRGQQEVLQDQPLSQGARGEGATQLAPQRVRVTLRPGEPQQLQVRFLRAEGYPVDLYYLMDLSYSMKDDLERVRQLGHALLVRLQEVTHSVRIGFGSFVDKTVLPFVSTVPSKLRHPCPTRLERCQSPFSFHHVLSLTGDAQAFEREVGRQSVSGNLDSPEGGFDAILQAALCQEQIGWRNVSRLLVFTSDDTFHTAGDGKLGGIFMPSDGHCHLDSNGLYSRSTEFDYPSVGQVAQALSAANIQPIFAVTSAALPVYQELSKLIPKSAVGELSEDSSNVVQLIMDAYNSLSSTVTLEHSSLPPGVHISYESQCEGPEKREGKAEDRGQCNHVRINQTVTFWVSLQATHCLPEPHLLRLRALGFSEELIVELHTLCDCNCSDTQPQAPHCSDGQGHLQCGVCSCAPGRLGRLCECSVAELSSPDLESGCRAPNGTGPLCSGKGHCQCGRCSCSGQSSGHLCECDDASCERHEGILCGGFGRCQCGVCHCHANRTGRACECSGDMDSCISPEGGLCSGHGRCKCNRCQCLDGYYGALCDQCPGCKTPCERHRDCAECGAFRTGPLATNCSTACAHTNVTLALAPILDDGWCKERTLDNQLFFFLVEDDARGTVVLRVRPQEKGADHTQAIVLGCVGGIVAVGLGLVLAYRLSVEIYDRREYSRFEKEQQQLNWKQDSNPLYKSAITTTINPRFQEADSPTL
Protocol: VCAM Antagonistic Activity (VCAM-1/α4β7 Binding Assay)
The capacity of a test substance antagonistic to the binding of lymphoma cell strain RPMI-8866 of human B cells, known to express integrin α4β7, to VCAM-1 was determined.
as §1
RPMI-8866 cells were washed with DMEM twice and incubated in Dulbecco modified Eagle medium containing 10 μg/ml of Calcein-AM (Wako Pure Chemical Industries, Ltd.) (SIGMA, hereinafter referred to as “DMEM”) in dark place at 37° C. for 30 minutes to label with fluorescence. The cells were again suspended in a binding buffer (20 mM HEPES, DMEM containing 0.1% BSA) containing 4 mM of MnCl2.
as §2, with “RPMI-8866” for “Jurkat”, “1420” for “1920”

IC50 (integrin α4β1)	IC50 (integrin α4β7)	SMILES
2.46 µM	0.0661 µM	Cc1cccc2[nH]c(=O)n(-c3ccc(C[C@H](NC(=O)c4c(Cl)cccc4Cl)C(=O)O)cc3)c(=O)c12 [Example 53]
0.071 µM	0.0098 µM	O=C(N[C@@H](Cc1ccc(-n2c(=O)[nH]c3cccc(Cl)c3c2=O)cc1)C(=O)O)c1c(Cl)cccc1Cl [Example 54]
0.639 µM	0.0299 µM	CC(C)n1c(=O)n(-c2ccc(C[C@H](NC(=O)c3c(Cl)cccc3Cl)C(=O)O)cc2)c(=O)c2cc([N+](=O)[O-])ccc21 [Example 57]
0.54 µM	0.0358 µM	O=C(N[C@@H](Cc1ccc(-n2c(=O)c3cc([N+](=O)[O-])ccc3n(C3CCC3)c2=O)cc1)C(=O)O)c1c(Cl)cccc1Cl [Example 59]
0.78 µM	0.0361 µM	O=C(N[C@@H](Cc1ccc(-n2c(=O)c3cc([N+](=O)[O-])ccc3n(C3CCCC3)c2=O)cc1)C(=O)O)c1c(Cl)cccc1Cl [Example 60]
1.15 µM	0.042 µM	CC(C)Cn1c(=O)n(-c2ccc(C[C@H](NC(=O)c3c(Cl)cccc3Cl)C(=O)O)cc2)c(=O)c2cc([N+](=O)[O-])ccc21 [Example 61]
1.45 µM	0.045 µM	O=C(N[C@@H](Cc1ccc(-n2c(=O)c3cc([N+](=O)[O-])ccc3n(CC3CCCCC3)c2=O)cc1)C(=O)O)c1c(Cl)cccc1Cl [Example 62]
0.028 µM	0.0013 µM	Cn1c(=O)n(-c2ccc(C[C@H](NC(=O)c3c(Cl)cccc3Cl)C(=O)O)cc2)c(=O)c2cc([N+](=O)[O-])ccc21 [Example 63]
0.33 µM	0.007 µM	O=C(N[C@@H](Cc1ccc(-n2c(=O)c3cc([N+](=O)[O-])ccc3n(Cc3ccccc3)c2=O)cc1)C(=O)O)c1c(Cl)cccc1Cl [Example 65]
0.17 µM	0.0013 µM	Cn1c(=S)n(-c2ccc(C[C@H](NC(=O)c3c(Cl)cccc3Cl)C(=O)O)cc2)c(=O)c2cc([N+](=O)[O-])ccc21 [Example 66]
0.37 µM	0.0022 µM	CCn1c(=S)n(-c2ccc(C[C@H](NC(=O)c3c(Cl)cccc3Cl)C(=O)O)cc2)c(=O)c2cc([N+](=O)[O-])ccc21 [Example 67]
0.35 µM	0.0015 µM	O=C(N[C@@H](Cc1ccc(-n2c(=O)c3cc([N+](=O)[O-])ccc3n(C3CC3)c2=S)cc1)C(=O)O)c1c(Cl)cccc1Cl [Example 68]
5.63 µM	0.0025 µM	O=C(N[C@@H](Cc1ccc(-n2c(=O)c3cc([N+](=O)[O-])ccc3n(Cc3ccccc3)c2=S)cc1)C(=O)O)c1c(Cl)cccc1Cl [Example 69]
0.034 µM	0.0035 µM	Cn1c(=O)n(-c2ccc(C[C@H](NC(=O)c3c(Cl)cccc3Cl)C(=O)O)cc2)c(=O)c2c(Cl)ccc(Cl)c21 [Example 70]
0.185 µM	0.011 µM	Cn1c(=O)n(-c2ccc(C[C@H](NC(=O)c3c(Cl)cccc3Cl)C(=O)O)cc2)c(=O)c2cc(Cl)cc(Cl)c21 [Example 71]
0.027 µM	0.0026 µM	Cn1c(=O)n(-c2ccc(C[C@H](NC(=O)c3c(Cl)cccc3Cl)C(=O)O)cc2)c(=O)c2ccc(F)cc21 [Example 72]
0.053 µM	0.0025 µM	Cn1c(=O)n(-c2ccc(C[C@H](NC(=O)c3c(Cl)cccc3Cl)C(=O)O)cc2)c(=O)c2cccnc21 [Example 74]
0.96 µM	0.074 µM	O=C(N[C@@H](Cc1ccc(-n2c(=O)[nH]c3nccnc3c2=O)cc1)C(=O)O)c1c(Cl)cccc1Cl [Example 80]
0.072 µM	0.0086 µM	O=C(N[C@@H](Cc1ccc(-n2nnc3c(Cl)ccc(Cl)c3c2=O)cc1)C(=O)O)c1c(Cl)cccc1Cl [Example 81]
0.511 µM	0.0437 µM	O=C(N[C@@H](Cc1ccc(-n2nnc3ccccc3c2=O)cc1)C(=O)O)c1c(Cl)cccc1Cl [Example 90]
4.03 µM	0.0048 µM	CCOc1nc2ccc(Cl)cc2c(=O)n1-c1ccc(C[C@H](NC(=O)c2c(Cl)cccc2Cl)C(=O)O)cc1 [Example 93]
0.96 µM	0.0018 µM	CCOc1nc2cc(F)ccc2c(=O)n1-c1ccc(C[C@H](NC(=O)c2c(Cl)cccc2Cl)C(=O)O)cc1 [Example 95]
1.5 µM	0.013 µM	Cc1cccc2c1c(=O)n(-c1ccc(C[C@H](NC(=O)c3c(Cl)cccc3Cl)C(=O)O)cc1)c(=O)n2Cc1ccccc1 [Example 97]
0.016 µM	0.0014 µM	CC(=O)Nc1ccc2c(c1)c(=O)n(-c1ccc(C[C@H](NC(=O)c3c(Cl)cccc3Cl)C(=O)O)cc1)c(=O)n2C [Example 104]
